Assay results as given in patent US20230414607A1, “METHODS OF TREATMENT” (BOW RIVER LLC, priority 2017, published 2023).
Read-outs that look alike come from different tables or passages of the source.

How the values were obtained:
[1] = Noxafil label, cited from earlier work
[2] = Pooled posaconazole steady-state concentration and elimination half-life, clinical studies BOW-001 and BOW-002; type: in vivo, human; conditions: for half-life: human, in vivo
Source text: The two clinical studies used the same protocol to measure posaconazole's elimination half-life, allowing for the data for normal patients from each study to be combined (“All Normal”) and data for obese patients from each study to be combined (“All Obese”).

[3] = Plasma posaconazole concentrations and washout half-life in normal-weight and obese subjects; type: in vivo, human; conditions: for Trough (predose) steady-state posaconazole concentration: Day 15, posaconazole 300 mg delayed-release tablet daily; for half-life: human, plasma, oral, from day 15, read-out: Postdosage washout half-life of posaconazole (converted)
Description: On study day 2, subjects received posaconazole (300 mg delayed-release tablet twice a day), and on the mornings of days 3-15, subjects received posaconazole (300 mg delayed-release tablet daily). Because posaconazole is to be taken with food,^6 subjects were fed a continental breakfast in the clinical research unit after receiving posaconazole and before discharge from the unit. […] One additional blood sample was taken 5 hours after the posaconazole dose on day 15 for approximate determination of maximum plasma posaconazole concentrations. Samples were centrifuged, and the plasma was separated and frozen at −70° C. until the time of assay of plasma posaconazole concentrations.
Analytic Methods. All bioassay analysis was performed by Keystone Bioanalytical (North Wales, PA). For analysis of posaconazole, the internal standard (posaconazole-d4) was added to the biological samples. Plasma samples were precipitated using formic acid in acetonitrile and isolated using a Phree phospholipid removal tube, and then an aliquot of the sample was injected onto a high-pressure liquid chromatography with tandem mass spectrometry triple quadrupole mass spectrometer (Sciex API-5500). The analytical column was a Unison CK-218, 3 μm particle size HPLC column (50×2 mm) from Imtakt USA (Portland, OR). The mobile phase consisted of an aqueous component (0.25% formic acid and 10 mmol/L ammonium formate in water) and an organic component (0.1% formic acid in acetonitrile) and was delivered by gradient, with the organic component going from 35% to 100%. The m/z transitions monitored were 701.6→614.4 for posaconazole and 705.6→618.4 for the internal standard. The calibration curve ranged from 1 to 1000 ng/mL (8 concentrations in duplicate). The interassay precision of this method (as percentage coefficient of variance) was 4.28% to 7.14%, and the interassay accuracy (as percentage relative error) was […] to 3.12%.
For each subject, the predose plasma posaconazole concentration on study day 15 was used as a steady-state concentration. The apparent washout half-life of posaconazole was calculated by log-linear regression analysis starting with the plasma concentration on day 15 and ending with the last nonzero value. Differences between normal-weight and obese cohorts were evaluated by Student t-test for independent groups.

[4] = Example 3: posaconazole posttreatment washout; type: in vivo; conditions: human, plasma, oral, 300 mg
[5] = Example 2: posaconazole pharmacokinetics in normal-weight and obese subjects; type: in vivo, human; conditions: for Steady-state concentration, Mean ± SD: posaconazole 300 mg once daily; for half-life: human, plasma, oral
Description: On study Day 4, subjects received two doses of posaconazole (300 mg BID). On the mornings of Days 5-17, they received posaconazole 300 mg once daily. As posaconazole is to be taken with food, subjects were fed a continental breakfast in the clinical research unit after receiving posaconazole and prior to discharge from the unit. Venous blood samples were drawn into EDTA containing tubes prior to the posaconazole dose on Days 4, 7, 11, and prior to the lurasidone dose on Days 14, 20, 23, 26 and 30. An additional blood sample was taken 5 hours after posaconazole dosage on Day 17, for approximate determination of maximum posaconazole plasma concentrations, and on Day 33. Samples were centrifuged and the plasma was separated and frozen at −70° C. until the time of assay.
Analytic Methods. All bioassay analyses were performed by Keystone Bioanalytical, North Wales, PA. For analysis of posaconazole, the internal standard (posaconazole-D4) was added to the biological samples. Plasma samples were precipitated using formic acid in acetonitrile and isolated using a Phree phospholipid removal tube. An aliquot of the sample was injected onto a high-pressure liquid chromatograph with tandem mass spectrometry triple quadrupole mass spectrometer (SCIEX API-5500). The analytical column was a Unison CK-218, 3 μm particle size HPLC column (50×2 mm) from Imtakt USA (Portland, OR). The mobile phase consisted of an aqueous component (0.25% formic acid and 10 mM ammonium formate in water) and an organic component (0.1% formic acid in acetonitrile) and was delivered by gradient, with the organic component going from 35% to 100%. The m/z transitions monitored were 701.6>614.4 for posaconazole and 705.6>618.4 for the internal standard. The calibration curve ranged from 1-1000 ng/mL (8 concentrations in duplicate).
Pharmacokinetic and Statistical Methods. […] The apparent washout half-life of posaconazole was calculated by log-linear regression analysis starting with the plasma concentration on Day 20 and ending with the last non-zero value. Differences between normal-weight and obese cohorts were evaluated by Student's t-test for independent groups. The relation between measures of body habitus and posaconazole washout half-life for individual subjects was evaluated by linear regression analysis.

CYP3A4 = CYP3A4 (Homo sapiens, UniProt P08684); conditions: human
Source text: Blood plasma levels may be described in various ways, such as area under the plasma concentration curve (AUC) and peak plasma concentration (Cmax). Baseline levels and posaconazole interaction levels for CYP3A4 substrate drugs may be compared using the geometric mean ratio (GMR) of AUC and Cmax. […] GMR is the standard industry and regulatory method for assessing the ratio of change of a pharmacokinetic variable (such as AUC) relative to its own baseline value (e.g., in a patient that was not treated with posaconazole). Once the level of substrate drug (AUC or Cmax) during co-administration with posaconazole and a CYP3A4 substrate drug is known, a function can be derived using conventional pharmacological methods to estimate how the AUC or plasma level of the CYP3A4 substrate drug is expected to decay over time after stopping administration of posaconazole. Such a function can be used to provide a plot of the decay GMR of AUC (or Cmax) of the CYP3A4 substrate drug versus time due to its interaction with posaconazole, based on the stated half-life of posaconazole.
The expected DDI decay curve can also be calculated for Cmax GMR by substituting Cmax during co-administration for AUC during co-administration in equation 1. As used herein, “expected levels” and “predicted levels” and the like, refer to the AUC or Cmax GMR values calculated using equation 1.

Chain of CYP3A4 (P08684 whole entry): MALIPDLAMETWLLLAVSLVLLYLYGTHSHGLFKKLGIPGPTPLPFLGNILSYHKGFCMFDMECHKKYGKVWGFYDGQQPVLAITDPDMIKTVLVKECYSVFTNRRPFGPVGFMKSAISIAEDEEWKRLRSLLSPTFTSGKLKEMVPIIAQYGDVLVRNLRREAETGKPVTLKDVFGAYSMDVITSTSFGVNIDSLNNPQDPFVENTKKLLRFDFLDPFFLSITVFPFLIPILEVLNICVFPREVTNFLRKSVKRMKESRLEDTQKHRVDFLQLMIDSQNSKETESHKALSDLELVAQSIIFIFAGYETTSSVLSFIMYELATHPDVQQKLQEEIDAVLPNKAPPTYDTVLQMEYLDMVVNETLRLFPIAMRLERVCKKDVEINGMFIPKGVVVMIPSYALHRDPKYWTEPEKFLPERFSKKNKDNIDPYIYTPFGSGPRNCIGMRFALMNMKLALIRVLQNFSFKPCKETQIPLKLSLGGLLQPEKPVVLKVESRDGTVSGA

For `CC[C@@H]([C@H](C)O)n1ncn(-c2ccc(N3CCN(c4ccc(OC[C@@H]5CO[C@@](Cn6cncn6)(c6ccc(F)cc6F)C5)cc4)CC3)cc2)c1=O` [posaconazole], the posaconazole half-life ([1]; after administration of posaconazole oral suspension) is given as 31 to 37 h, the posaconazole half-life ([1]; after dosing with posaconazole injection) is given as “about 24 hours” and the posaconazole half-life ([1]; patients with mild hepatic impairment) is given as 39 h. For the same compound, the posaconazole half-life ([1]; patients with moderate hepatic impairment) was 27 h, the posaconazole half-life ([1]; patients with normal hepatic function) was 27 h and the posaconazole half-life ([1]; patients with severe hepatic impairment) was 43 h. The “Css, Mean” value ([2]; All Normal (pooled)) was 2864 ng/mL, the “Css, Mean” value ([2]; All Obese (pooled)) was 1860 ng/mL and the “Css, Mean” value ([2]; BOW-001 Normal) was 3071 ng/mL. The “Css, Mean” value ([2]; BOW-001 Obese) was 2258 ng/mL, the “Css, Mean” value ([2]; BOW-002 Normal) was 2514 ng/mL and the “Css, Mean” value ([2]; BOW-002 Obese) was 1462 ng/mL. For the same compound, the half-life ([2]; All Normal (pooled), normal weight patients, read-out: t1/2, Mean (elimination half-life) (converted)) was 2020 min, the half-life ([2]; All Obese (pooled), obese patients, read-out: t1/2, Mean (elimination half-life) (converted)) was 3500 min and the half-life ([2]; BOW-001 Normal, read-out: t1/2, Mean (converted)) was 2140 min. The half-life ([2]; BOW-001 Obese, read-out: t1/2, Mean (converted)) was 3870 min, the half-life ([2]; BOW-002 Normal, read-out: t1/2, Mean (converted)) was 1850 min and the half-life ([2]; BOW-002 Obese, read-out: t1/2, Mean (converted)) was 3150 min. The “Trough (predose) steady-state posaconazole concentration” value ([3]; normal-weight subjects) was 3071 ± 1422 ng/mL, the “Trough (predose) steady-state posaconazole concentration” value ([3]; obese subjects) was 2258 ± 952 ng/mL and the half-life ([3]; normal-weight subjects) was 1.49 days. The half-life ([3]; obese subjects) was 2.68 days, the “Time posaconazole plasma concentrations persisted after stopping treatment” value ([3]; most subjects) was “at least 2 weeks” and the half-life ([4]; normals) was 2160 min. The half-life ([4]; obese subjects) was 3840 min, the “Steady-state concentration, Mean ± SD” value ([5]; Normal) was 2377 ± 1188 ng/mL and the “Steady-state concentration, Mean ± SD” value ([5]; Obese) was 1462 ± 649 ng/mL. It also gave a half-life ([5]; Normal, read-out: Washout half-life, Mean ± SD (converted)) of 1.29 days, a half-life ([5]; Obese, read-out: Washout half-life, Mean ± SD (converted)) of 2.21 days and a half-life ([5]; controls (normal-weight), read-out: Mean washout half-life (converted)) of 1.28 days. The half-life ([5]; obese group, read-out: Mean washout half-life (converted)) was 2.19 days, the half-life ([5]; two obese subjects, read-out: very long half-life values (converted)) was 5.04 days and the “Kel=ln(2)/(31 hours/24 hours)” value (CYP3A4) was “about 0.5366”.
